Where two headings read alike, the source gives them in different places.
What was measured:
Assay in all cases: biochemical
Format in all cases: binding
panel of 442 kinases [1] = target: T1, panel of 442 kinases (Homo sapiens, UniProt P04629); details: kinase TRKA; for remaining activity at 1 µM: read-out: TRKA (% of control at 1 µM)
T1 construct: purchased Ambit Biosciences (scanMAXX KINOMEscan)

panel of 442 kinases [2] = target: T2, panel of 442 kinases (Homo sapiens, UniProt O14936); details: CASK; for remaining activity at 1 µM: read-out: % of control at 1 µM
T2 construct: purchased Ambit Biosciences (scanMAXX KINOMEscan)
T2 sequence (O14936 1-926): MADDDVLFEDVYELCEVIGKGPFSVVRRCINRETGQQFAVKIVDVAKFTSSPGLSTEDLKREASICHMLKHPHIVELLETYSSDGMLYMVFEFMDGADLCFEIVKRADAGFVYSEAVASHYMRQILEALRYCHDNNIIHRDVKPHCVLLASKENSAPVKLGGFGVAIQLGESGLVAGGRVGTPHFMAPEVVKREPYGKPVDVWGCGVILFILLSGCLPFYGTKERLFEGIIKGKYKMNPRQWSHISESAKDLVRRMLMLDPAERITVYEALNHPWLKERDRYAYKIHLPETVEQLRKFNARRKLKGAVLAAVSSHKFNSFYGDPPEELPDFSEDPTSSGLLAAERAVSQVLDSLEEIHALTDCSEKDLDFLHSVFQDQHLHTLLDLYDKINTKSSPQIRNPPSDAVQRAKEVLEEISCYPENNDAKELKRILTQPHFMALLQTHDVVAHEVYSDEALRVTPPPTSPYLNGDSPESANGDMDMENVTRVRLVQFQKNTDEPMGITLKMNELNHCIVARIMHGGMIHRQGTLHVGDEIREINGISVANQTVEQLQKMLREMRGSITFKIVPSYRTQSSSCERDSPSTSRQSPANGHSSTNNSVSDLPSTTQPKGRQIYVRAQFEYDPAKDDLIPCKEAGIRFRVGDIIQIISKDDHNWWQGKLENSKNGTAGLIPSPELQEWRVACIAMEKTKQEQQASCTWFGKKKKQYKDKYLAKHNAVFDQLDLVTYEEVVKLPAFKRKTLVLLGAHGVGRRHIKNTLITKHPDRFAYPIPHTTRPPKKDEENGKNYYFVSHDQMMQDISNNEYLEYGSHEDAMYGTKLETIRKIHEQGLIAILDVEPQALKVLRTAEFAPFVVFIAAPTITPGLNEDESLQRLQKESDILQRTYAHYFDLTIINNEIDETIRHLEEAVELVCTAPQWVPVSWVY

panel of 442 kinases [3] = target: T3, panel of 442 kinases (Homo sapiens, UniProt O95835); details: kinase LATS1; for remaining activity at 1 µM: read-out: % of control at 1 µM
T3 construct: purchased Ambit Biosciences (scanMAXX KINOMEscan)
T3 sequence (O95835 1-1130): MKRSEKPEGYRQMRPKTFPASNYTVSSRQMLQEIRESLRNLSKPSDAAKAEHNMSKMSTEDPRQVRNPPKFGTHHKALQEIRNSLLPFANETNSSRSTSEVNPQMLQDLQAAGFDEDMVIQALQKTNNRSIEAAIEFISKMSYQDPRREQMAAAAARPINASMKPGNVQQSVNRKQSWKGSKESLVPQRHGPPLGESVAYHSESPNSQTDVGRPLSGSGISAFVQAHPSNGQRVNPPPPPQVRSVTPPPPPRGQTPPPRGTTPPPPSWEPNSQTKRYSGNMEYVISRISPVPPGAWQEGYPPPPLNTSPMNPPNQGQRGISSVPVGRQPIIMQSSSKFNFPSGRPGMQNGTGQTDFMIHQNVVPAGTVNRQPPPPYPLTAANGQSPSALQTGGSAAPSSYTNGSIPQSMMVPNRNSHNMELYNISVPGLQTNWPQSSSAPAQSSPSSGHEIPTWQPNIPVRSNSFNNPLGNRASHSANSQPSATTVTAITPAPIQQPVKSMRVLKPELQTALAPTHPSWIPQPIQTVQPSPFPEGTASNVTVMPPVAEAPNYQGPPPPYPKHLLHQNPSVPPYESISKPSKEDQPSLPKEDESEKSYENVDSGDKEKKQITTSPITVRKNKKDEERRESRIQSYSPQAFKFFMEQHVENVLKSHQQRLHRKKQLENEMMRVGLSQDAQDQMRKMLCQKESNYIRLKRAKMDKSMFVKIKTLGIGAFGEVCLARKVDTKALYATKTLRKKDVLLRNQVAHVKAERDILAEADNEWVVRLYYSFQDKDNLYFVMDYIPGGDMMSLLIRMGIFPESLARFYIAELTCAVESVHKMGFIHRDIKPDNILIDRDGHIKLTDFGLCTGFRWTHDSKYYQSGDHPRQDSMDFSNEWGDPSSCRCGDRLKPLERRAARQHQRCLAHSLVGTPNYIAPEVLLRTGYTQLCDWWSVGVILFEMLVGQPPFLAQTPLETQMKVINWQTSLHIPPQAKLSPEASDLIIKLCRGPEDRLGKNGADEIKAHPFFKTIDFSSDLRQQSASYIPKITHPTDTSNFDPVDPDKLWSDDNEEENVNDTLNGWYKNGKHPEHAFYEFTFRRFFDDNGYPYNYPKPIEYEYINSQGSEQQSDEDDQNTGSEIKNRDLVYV

panel of 442 kinases [4] = target: T4, panel of 442 kinases (Homo sapiens, UniProt P00519); details: for remaining activity at 1 µM: read-out: % of control at 1 µM; for remaining activity at 10 µM: read-out: % of control at 10 µM
T4 construct: purchased Ambit Biosciences (scanMAXX KINOMEscan)
T4 sequence (P00519 whole entry): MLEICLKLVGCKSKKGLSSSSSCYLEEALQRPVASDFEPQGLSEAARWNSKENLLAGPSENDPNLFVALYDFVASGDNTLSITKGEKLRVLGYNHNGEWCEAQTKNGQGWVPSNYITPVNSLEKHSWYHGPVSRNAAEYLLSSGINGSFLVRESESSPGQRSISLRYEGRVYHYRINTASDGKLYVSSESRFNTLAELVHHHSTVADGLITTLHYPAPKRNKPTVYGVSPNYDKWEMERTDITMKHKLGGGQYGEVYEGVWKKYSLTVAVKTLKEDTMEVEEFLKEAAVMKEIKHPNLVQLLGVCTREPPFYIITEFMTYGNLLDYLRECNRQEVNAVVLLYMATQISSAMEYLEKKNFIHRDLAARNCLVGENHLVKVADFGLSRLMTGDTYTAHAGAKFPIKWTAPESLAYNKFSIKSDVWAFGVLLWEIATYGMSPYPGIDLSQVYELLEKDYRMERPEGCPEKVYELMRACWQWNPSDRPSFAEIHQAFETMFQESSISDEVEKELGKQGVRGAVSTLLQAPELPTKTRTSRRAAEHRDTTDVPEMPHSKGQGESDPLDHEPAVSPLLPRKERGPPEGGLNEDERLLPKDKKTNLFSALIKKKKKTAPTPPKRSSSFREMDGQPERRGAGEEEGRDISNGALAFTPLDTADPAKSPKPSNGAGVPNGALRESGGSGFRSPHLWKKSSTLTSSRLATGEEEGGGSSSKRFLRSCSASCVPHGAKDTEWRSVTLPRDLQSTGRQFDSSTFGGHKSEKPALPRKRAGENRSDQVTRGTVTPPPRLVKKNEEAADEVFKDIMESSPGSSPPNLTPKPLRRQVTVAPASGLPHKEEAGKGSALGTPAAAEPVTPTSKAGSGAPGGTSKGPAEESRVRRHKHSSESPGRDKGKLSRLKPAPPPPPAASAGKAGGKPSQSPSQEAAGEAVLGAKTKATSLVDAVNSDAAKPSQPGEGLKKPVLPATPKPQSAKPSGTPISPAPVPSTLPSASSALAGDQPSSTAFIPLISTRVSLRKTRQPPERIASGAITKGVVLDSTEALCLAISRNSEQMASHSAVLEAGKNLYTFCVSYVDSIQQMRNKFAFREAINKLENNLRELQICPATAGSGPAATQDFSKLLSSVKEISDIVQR

panel of 442 kinases [5] = target: T5, panel of 442 kinases (Homo sapiens, UniProt Q9C098); details: DCAMKL3; for remaining activity at 1 µM: read-out: % of control at 1 µM
T5 construct: purchased Ambit Biosciences (scanMAXX KINOMEscan)
T5 sequence (Q9C098 whole entry): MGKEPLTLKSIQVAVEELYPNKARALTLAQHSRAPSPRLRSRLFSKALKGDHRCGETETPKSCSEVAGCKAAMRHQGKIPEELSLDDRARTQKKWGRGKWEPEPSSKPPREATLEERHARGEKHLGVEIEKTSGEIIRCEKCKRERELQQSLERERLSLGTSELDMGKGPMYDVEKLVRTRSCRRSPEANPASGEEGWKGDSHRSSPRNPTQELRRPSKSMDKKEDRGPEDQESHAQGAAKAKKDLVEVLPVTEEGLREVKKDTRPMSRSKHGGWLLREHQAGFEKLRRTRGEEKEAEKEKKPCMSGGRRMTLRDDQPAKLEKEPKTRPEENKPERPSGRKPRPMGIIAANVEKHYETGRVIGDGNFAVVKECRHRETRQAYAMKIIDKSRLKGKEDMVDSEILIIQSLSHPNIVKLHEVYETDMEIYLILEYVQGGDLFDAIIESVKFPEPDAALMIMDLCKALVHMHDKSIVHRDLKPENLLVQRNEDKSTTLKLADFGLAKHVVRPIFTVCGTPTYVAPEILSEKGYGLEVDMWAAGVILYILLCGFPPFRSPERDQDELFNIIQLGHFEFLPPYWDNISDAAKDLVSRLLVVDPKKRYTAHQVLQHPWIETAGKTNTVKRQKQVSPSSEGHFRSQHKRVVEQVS

[6] = 10 µM, read-out: % of control at 10 µM

T1 sequence (P04629 33-796): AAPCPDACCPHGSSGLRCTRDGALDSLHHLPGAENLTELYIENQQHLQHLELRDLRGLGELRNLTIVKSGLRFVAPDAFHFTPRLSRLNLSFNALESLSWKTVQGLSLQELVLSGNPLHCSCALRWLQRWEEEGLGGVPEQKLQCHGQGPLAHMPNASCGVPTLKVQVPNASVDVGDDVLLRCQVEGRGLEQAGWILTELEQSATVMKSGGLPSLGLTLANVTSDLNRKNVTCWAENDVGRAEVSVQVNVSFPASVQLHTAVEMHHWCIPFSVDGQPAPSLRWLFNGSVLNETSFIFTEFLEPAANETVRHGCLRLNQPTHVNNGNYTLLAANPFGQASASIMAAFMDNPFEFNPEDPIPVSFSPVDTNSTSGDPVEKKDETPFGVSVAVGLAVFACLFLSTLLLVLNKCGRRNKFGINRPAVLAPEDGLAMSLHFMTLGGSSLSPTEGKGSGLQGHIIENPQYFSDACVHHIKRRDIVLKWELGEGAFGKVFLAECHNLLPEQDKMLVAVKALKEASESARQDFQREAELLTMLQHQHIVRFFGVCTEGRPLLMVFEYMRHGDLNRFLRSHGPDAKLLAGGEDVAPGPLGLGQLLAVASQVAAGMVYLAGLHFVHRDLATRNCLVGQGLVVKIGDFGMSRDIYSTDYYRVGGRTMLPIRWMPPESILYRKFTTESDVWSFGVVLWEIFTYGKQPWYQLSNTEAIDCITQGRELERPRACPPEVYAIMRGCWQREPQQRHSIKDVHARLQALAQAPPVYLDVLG

SMILES | remaining activity at 1 µM (panel of 442 kinases [1]) [%] | remaining activity at 10 µM (panel of 442 kinases [1]; 10 µM, read-out: TRKA (% of control at 10 µM)) [%] | remaining activity at 1 µM (panel of 442 kinases [2]) [%] | remaining activity at 10 µM (panel of 442 kinases [2]; [6]) [%] | remaining activity at 1 µM (panel of 442 kinases [3]) [%] | remaining activity at 10 µM (panel of 442 kinases [3]; [6]) [%] | remaining activity at 1 µM (panel of 442 kinases [4]; ABL1-nonphosphorylated) [%] | remaining activity at 10 µM (panel of 442 kinases [4]; ABL1-nonphosphorylated) [%] | remaining activity at 1 µM (panel of 442 kinases [4]; ABL1-phosphorylated) [%] | remaining activity at 10 µM (panel of 442 kinases [4]; ABL1-phosphorylated) [%] | remaining activity at 1 µM (panel of 442 kinases [5]) [%] | remaining activity at 10 µM (panel of 442 kinases [5]; [6]) [%]
Nc1cc(C(F)(F)F)c(-c2cc(N3CCOCC3)nc(N3CCOCC3)n2)cn1 [Buparlisib] | 97 | 80 | 99 | 100 | 71 | 100 | 100 | 100 | 86 | 100 | 100 | 100
Cn1c(=O)n(-c2ccc(C(C)(C)C#N)cc2)c2c3cc(-c4cnc5ccccc5c4)ccc3ncc21 [Dactolisib, 2-methyl-2-[4-(3-methyl-2-oxo-8-quinolin-3-yl-2,3-dihydroimidazo[4,5-c]quinolin-1-yl)-phenyl] propionitrile] |  |  | 100 |  | 100 |  | 100 |  | 81 |  | 100 | 
COc1ncc(-c2ccc3nccc(-c4ccnnc4)c3c2)cc1NS(=O)(=O)c1ccc(F)cc1F [Omipalisib] | 80 |  | 75 |  | 100 |  | 100 |  | 98 |  | 100 | 
FC(F)c1nc2ccccc2n1-c1nc(N2CCOCC2)nc(N2CCOCC2)n1 [ZSTK474, 2-(difluoromethyl)-1-[4,6-di(4-morpholinyl)-1,3,5-triazin-2-yl]-1H-benzimidazole] | 100 |  | 87 |  | 90 |  | 100 |  | 100 |  | 100 | 

From article PMC5564600 (Oncotarget, 2017)
